Measurements as given in patent US6852482B1, “Methods and compositions for inhibiting β-secretase” (Elan Pharmaceuticals, Inc., priority 1995, dated 2005).
Read-outs that look alike come from different tables or passages of the source.

Assays:
[1] = biological target: T1, β-secretase cleavage of APP in membranes from 293 cells transfected with the Swedish variant of APP (Homo sapiens, UniProt P56817); assay: cell membrane (in situ) β-secretase cleavage of APP, 293SW cell membranes, 192SW immunoblot; format: biochemical
T1 construct: membranes from 293 cells transfected with the Swedish variant of APP (293SWE cells); endogenous in cells; host or cells: 293SW cells (human 293 cells stably transfected with Swedish APP); saponin-extracted P2 membrane pellet
Source text: Generation of β-secretase cleaved APP fragments from the endogenous full length APP protein was observed using the 192SW antibody (described above) in membranes from 293 cells transfected with the Swedish variant of APP (293SWE cells). APP fragments may be measured by immunoprecipitation or by immunoblotting. The latter technique is preferred for reasons of convenience.
A semiquantitative assay for the detecting in situ β-secretase cleavage of APP in membranes was developed used to directly identify β-secretase inhibitors. The membrane assay is useful as a primary screen or as a secondary assay to confirm inhibiting activity of potential inhibitors identified in the assays described above.
Cell membrane assays were run as follows. […]
For β-secretase inhibition assays, 10 μl of the test compound of interest at 5 times its desired final concentration, in 500 mM sodium acetate, pH 5.5, and 20% DMSO, was added to 40 μl of the extracted P2 suspension. […] Membranes were blocked in NCS-TBS (10% newborn calf serum, 150 mM sodium chloride, 50 mM Tris, pH 7.5), and analyzed using 192SW, 0.5 μg/ml in NCS-TBS, as primary antibody, horseradish peroxidase-linked anti-rabbit IgG (Amersham) diluted 1:3000 in NCS-TBS as secondary antibody, and ECL reagent (Amersham) as chemilumenescent developer. The 192SW-reactive bands identified by autoradiography were quantitated by densitometry.

β-secretase [2] = biological target: T2, β-secretase (Homo sapiens, UniProt P56817); assay: β-secretase inhibitor assay: purified β-secretase, MBP-C125 SW substrate, ELISA
T2 sequence (P56817 46-501): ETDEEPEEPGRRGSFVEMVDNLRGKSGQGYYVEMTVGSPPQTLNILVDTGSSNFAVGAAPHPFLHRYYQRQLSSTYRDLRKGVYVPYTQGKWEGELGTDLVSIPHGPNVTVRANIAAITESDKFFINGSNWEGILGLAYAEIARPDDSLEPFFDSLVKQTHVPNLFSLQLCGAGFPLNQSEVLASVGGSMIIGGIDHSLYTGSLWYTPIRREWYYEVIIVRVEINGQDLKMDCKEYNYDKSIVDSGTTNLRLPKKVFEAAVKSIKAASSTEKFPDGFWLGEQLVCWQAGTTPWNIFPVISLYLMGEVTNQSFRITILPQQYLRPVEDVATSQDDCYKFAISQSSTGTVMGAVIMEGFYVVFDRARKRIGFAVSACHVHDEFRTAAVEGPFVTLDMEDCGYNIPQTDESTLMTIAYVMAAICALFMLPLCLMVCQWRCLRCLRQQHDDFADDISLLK

β-secretase [3] = biological target: T2, β-secretase; assay: binding of substantially purified β-secretase activity to immobilized lectins; parameters: endogenous in cells; host or cells: human 293 cells or human brain; solubilized membrane extract purified by WGA, SP, Q, Con A and Superdex 200 chromatography; details: for β-Secretase Binding: immobilized lectins
Experimental: Glycosylation of β-secretase has been investigated using various immobilized lectins, and ability of substantially purified β-secretase activity to bind to them was determined. […] A “−” sign signifies less than 20% binding, “+” between 24-40% binding, “++” between 50-75% binding, and “+++”>75% binding.

[4] = concentration of inhibitor giving 50% inhibition of control activity

Molecule | IC50 (β-secretase [2]; [4]) [mM] | β-Secretase Binding (β-secretase [3]) | also measured
Nc1c(/N=N/c2ccc(-c3ccc(/N=N/c4cc(S(=O)(=O)O)c5ccccc5c4N)cc3)cc2)cc(S(=O)(=O)O)c2ccccc12 [Congo Red] |  |  | activity in the in situ assay [1]: much more potent than an inactive control compound; activity in the ELISA assay (β-secretase [2]; ELISA assay): much more potent than an inactive control compound
[Cu+2] [Cu] | 2 |  | 
[Zn+2] [Zn] | 3 |  | 
CCCCC(NC(=O)C=[N+]=[N-])C(=O)OC (stereo not shown) [diazoacetylnorleucyl-methyl ester] |  |  | IC50 (β-secretase [2]): > 5 mM
c1cnc2c(c1)ccc1cccnc12 [o-phenanthroline] | 7 |  | inhibition of β-secretase activity (β-secretase [2]; summary of Table 3): inhibits poorly
m-phenanthroline | 7 |  | 
wheat germ (WGA): immobilized lectin |  | + + + | binding of β-secretase activity (β-secretase [3]): quantitatively
wheat germ - succinylated (SWGA): immobilized lectin |  | + (between 24-40% binding) | 
peanut (PNA): immobilized lectin (protein, UniProt P02872 24-273, looked up, immobilized, immobilized lectin) Galactose-binding lectin: AETVSFNFNSFSEGNPAINFQGDVTVLSNGNIQLTNLNKVNSVGRVLYAMPVRIWSSATGNVASFLTSFSFEMKDIKDYDPADGIIFFIAPEDTQIPAGSIGGGTLGVSDTKGAGHFVGVEFDTYSNSEYNDPPTDHVGIDVNSVDSVKTVPWNSVSGAVVKVTVIYDSSTKTLSVAVTNDNGDITTIAQVVDLKAKLPERVKFGFSASGSLGGRQIHLIRSWSFTSTLITTTRRSIDNNEKKIMNMASA |  | + (between 24-40% binding) | 
lentil (LCA): immobilized lectin (protein) chain 1: TETTSFSITKFSPDQKNLIFQGDGYTTKGKLTLTKAVKSTVGRALYSTPIHIWDRDTGNVANFVTSFTFVIDAPSSYNVADEFTFFIAPVDTKPQTGGGYLGVFNSKEYDKTSQTVAVEFDTFYNAAWDPSNKERHIGIDVNSIKSVNTKSWNLQNGERANVVIAFNAATNVLTVTLTYP chain 2: VTSYTLNEVVPLKDVVPEWVRIGFSATTGAEFAAHEVHSWSFHSELGGTSSS |  | + (between 24-40% binding) | 
